Earlier results in article PMC9516332 (Frontiers in Oncology, 2022).
Read-outs that look alike come from different tables or passages of the source.

Assays:
Details in all cases: cited from earlier work
[1] = target: T1, panel of 255 wild-type kinases (Homo sapiens, UniProt Q16566)
T1 sequence (Q16566 1-473): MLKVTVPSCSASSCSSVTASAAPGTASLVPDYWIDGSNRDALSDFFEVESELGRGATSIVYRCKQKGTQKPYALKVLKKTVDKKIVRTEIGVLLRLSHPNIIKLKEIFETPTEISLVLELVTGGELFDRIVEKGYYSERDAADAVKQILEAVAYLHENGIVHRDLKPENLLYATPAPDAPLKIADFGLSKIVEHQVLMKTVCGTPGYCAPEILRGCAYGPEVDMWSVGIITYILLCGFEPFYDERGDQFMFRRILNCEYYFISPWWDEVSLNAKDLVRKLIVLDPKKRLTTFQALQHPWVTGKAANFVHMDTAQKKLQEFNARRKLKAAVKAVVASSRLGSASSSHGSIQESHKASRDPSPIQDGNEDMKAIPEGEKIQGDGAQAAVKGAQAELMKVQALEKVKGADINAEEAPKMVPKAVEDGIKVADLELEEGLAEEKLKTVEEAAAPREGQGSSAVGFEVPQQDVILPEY

[2] = target: panel of 255 wild-type kinases (Homo sapiens, UniProt P08922)
[3] = target: panel of 255 wild-type kinases (Homo sapiens, UniProt Q04759)
[4] = target: panel of 255 wild-type kinases (Homo sapiens, UniProt P22612)
[5] = target: panel of 255 wild-type kinases (Homo sapiens, UniProt P35968)
[6] = target: panel of 255 wild-type kinases (Homo sapiens, UniProt Q15349)
[7] = target: panel of 255 wild-type kinases (Homo sapiens, UniProt O75676)
[8] = target: T2, panel of 255 wild-type kinases (Homo sapiens, UniProt O43781)
T2 sequence (O43781 1-588): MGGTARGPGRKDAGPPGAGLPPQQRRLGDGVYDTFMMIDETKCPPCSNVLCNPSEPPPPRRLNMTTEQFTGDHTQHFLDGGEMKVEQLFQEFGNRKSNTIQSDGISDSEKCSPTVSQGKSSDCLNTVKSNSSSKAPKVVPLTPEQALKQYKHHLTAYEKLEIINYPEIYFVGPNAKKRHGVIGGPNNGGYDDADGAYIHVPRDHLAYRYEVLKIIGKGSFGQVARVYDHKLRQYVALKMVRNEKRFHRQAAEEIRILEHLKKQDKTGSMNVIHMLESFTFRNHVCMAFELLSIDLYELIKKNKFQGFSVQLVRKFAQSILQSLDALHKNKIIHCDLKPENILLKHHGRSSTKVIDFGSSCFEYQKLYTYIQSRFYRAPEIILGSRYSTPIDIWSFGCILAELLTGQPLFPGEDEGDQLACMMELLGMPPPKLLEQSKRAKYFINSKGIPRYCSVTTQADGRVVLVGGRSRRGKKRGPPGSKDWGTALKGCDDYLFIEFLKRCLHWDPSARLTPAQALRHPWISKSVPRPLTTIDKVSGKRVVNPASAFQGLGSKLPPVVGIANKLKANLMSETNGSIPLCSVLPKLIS

[9] = target: T3, panel of 255 wild-type kinases (Homo sapiens, UniProt P30530)
T3 sequence (P30530 26-894): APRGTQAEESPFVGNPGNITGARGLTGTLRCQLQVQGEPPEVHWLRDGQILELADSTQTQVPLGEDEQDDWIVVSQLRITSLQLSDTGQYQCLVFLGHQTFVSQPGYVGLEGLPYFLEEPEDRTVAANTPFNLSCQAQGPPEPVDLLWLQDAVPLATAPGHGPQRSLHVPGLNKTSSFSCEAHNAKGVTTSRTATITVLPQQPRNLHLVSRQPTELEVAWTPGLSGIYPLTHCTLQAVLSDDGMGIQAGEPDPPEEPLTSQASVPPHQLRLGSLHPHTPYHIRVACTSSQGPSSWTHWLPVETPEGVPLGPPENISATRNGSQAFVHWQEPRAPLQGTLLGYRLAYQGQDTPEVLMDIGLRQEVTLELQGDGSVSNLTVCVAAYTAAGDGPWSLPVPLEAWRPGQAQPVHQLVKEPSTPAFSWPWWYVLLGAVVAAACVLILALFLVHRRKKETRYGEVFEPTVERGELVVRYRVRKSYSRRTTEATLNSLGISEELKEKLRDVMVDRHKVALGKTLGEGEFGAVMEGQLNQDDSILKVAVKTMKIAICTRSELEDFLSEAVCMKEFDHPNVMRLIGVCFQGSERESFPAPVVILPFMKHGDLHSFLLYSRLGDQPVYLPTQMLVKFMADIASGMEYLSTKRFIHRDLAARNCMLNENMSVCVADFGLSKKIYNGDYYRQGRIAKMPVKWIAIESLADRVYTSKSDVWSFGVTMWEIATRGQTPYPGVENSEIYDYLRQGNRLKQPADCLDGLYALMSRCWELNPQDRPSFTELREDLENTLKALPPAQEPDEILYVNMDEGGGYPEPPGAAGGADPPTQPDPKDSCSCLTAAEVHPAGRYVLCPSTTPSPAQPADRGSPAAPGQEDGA

[10] = CaMK4 kinase assay, 1 µmol/L single concentration, ref DOI: 10.1158/1535-7163.MCT-18-0877
[11] = kinase ROS, 1 µmol/L single concentration, ref DOI: 10.1158/1535-7163.MCT-18-0877
[12] = kinase PKCθ, 1 µmol/L single concentration, ref DOI: 10.1158/1535-7163.MCT-18-0877
[13] = kinase PKACγ, 1 µmol/L single concentration, ref DOI: 10.1158/1535-7163.MCT-18-0877
[14] = kinase KDR, 1 µmol/L single concentration, ref DOI: 10.1158/1535-7163.MCT-18-0877
[15] = kinase RSK3, 1 µmol/L single concentration, ref DOI: 10.1158/1535-7163.MCT-18-0877
[16] = MSK2, 1 µmol/L single concentration, ref DOI: 10.1158/1535-7163.MCT-18-0877
[17] = kinase DYRK3, 1 µmol/L single concentration, ref DOI: 10.1158/1535-7163.MCT-18-0877
[18] = AXL kinase assay, 1 µmol/L single concentration, ref DOI: 10.1158/1535-7163.MCT-18-0877
[19] = kinase PKCθ, 1 µmol/L single concentration, ref DOI: 10.1371/journal.pone.0092146
[20] = kinase PKACγ, 1 µmol/L single concentration, ref DOI: 10.1371/journal.pone.0092146
[21] = kinase RSK3, 1 µmol/L single concentration, ref DOI: 10.1371/journal.pone.0092146
[22] = MSK2, 1 µmol/L single concentration, ref DOI: 10.1371/journal.pone.0092146
[23] = kinase DYRK3, 1 µmol/L single concentration, ref DOI: 10.1371/journal.pone.0092146
[24] = CaMK4 kinase assay, 1 µmol/L single concentration, ref DOI: 10.1371/journal.pone.0092146
[25] = kinase ROS, 1 µmol/L single concentration, ref DOI: 10.1371/journal.pone.0092146
[26] = AXL kinase assay, 1 µmol/L single concentration, ref DOI: 10.1371/journal.pone.0092146
[27] = kinase KDR, 1 µmol/L single concentration, ref DOI: 10.1371/journal.pone.0092146

Row | SMILES | %-inhibition CaMK4 [1, 10] | %-inhibition at 1 µmol/L, ROS [2, 11] | %-inhibition at 1 µmol/L, PKCθ [3, 12] | %-inhibition at 1 µmol/L, PKACγ [4, 13] | %-inhibition at 1 µmol/L, KDR [5, 14] | %-inhibition at 1 µmol/L, RSK3 [6, 15] | %-inhibition, MSK2 [7, 16] | %-inhibition at 1 µmol/L, DYRK3 [8, 17] | %-inhibition AXL [9, 18] | %-inhibition at 1 µmol/L, DYRK3 [8, 23] | further results
1 | CC#CC(=O)N1CCC[C@H]1c1nc(-c2ccc(C(=O)Nc3ccccn3)cc2)c2c(N)nccn12 [acalabrutinib] | -8.42% | 1.79% | -8% | 1.68% | 7% | 1.13% | 1.53% | 0.353% | -0.457% |  | 
2 | CCc1cc2c(cc1N1CCC(N3CCOCC3)CC1)C(C)(C)c1[nH]c3cc(C#N)ccc3c1C2=O [alectinib] | -4% | 14% | -2% | 3% | 18% |  | 1.22% | 8.44% | 59% |  | 
3 | COc1cc(N2CCC(N3CCN(C)CC3)CC2)ccc1Nc1ncc(Cl)c(Nc2ccccc2P(C)(C)=O)n1 [brigatinib] |  |  |  |  |  |  |  |  |  |  | %-inhibition CaMK4 [1]: 13%; %-inhibition at 1 µmol/L, ROS [2]: 101%; %-inhibition at 1 µmol/L, PKCθ [3]: 29%; %-inhibition at 1 µmol/L, PKACγ [4]: 9%; %-inhibition at 1 µmol/L, KDR [5]: 86%; %-inhibition at 1 µmol/L, RSK3 [6]: 100%; %-inhibition, MSK2 [7]: 10%; %-inhibition at 1 µmol/L, DYRK3 [8]: 3.23%; %-inhibition AXL [9]: 97%
4 | Cc1cc(Nc2ncc(Cl)c(Nc3ccccc3S(=O)(=O)C(C)C)n2)c(OC(C)C)cc1C1CCNCC1 [ceritinib] | 30% | 101% | -0.708% | 1.46% | 58% | 90% | 2.2% | -2.12% | 56% |  | 
5 | O=C(c1ccc(F)c(F)c1Nc1ccc(I)cc1F)N1CC(O)([C@@H]2CCCCN2)C1 [cobimetinib] | 2% | 3% | -4.34% | 4.37% | 13% | 8% | -0.0695% | -3.62% | 3% |  | 
6 | C[C@@H](Oc1cc(-c2cnn(C3CCNCC3)c2)cnc1N)c1c(Cl)ccc(F)c1Cl [crizotinib] |  |  |  |  |  |  |  |  |  | 14% | %-inhibition at 1 µmol/L, PKCθ [3, 19]: -3%; %-inhibition at 1 µmol/L, PKACγ [4, 20]: -6.52%; %-inhibition at 1 µmol/L, RSK3 [6, 21]: 3.34%; %-inhibition, MSK2 [7, 22]: -1.8%
7 | CC(C)(C)c1nc(-c2cccc(NS(=O)(=O)c3c(F)cccc3F)c2F)c(-c2ccnc(N)n2)s1 [dabrafenib] |  |  |  |  |  |  |  |  |  | -5.68% | %-inhibition CaMK4 [1, 24]: 78%; %-inhibition at 1 µmol/L, ROS [2, 25]: 8.55%; %-inhibition AXL [9, 26]: 30%
8 | C=CC(=O)N1CCC[C@@H](n2nc(-c3ccc(Oc4ccccc4)cc3)c3c(N)ncnc32)C1 [ibrutinib] | 3% | 5% | -1.13% | 5% | 84% | 9% | -2% | -4% | 9% |  | 
9 | CO[C@@H]1[C@H](N(C)C(=O)c2ccccc2)C[C@H]2O[C@]1(C)n1c3ccccc3c3c4c(c5c6ccccc6n2c5c31)C(=O)NC4 [midostaurin] | 3.79% |  |  | 81% |  | 98% | 77% |  | 87% |  | %-inhibition at 1 µmol/L, ROS [2]: 102%
10 | C=CC(=O)Nc1cc(Nc2nccc(-c3cn(C)c4ccccc34)n2)c(OC)cc1N(C)CCN(C)C [osimertinib] | 2.5% | 101% | 10% | 7.4% | 46% | 53% | 0.681% | 21% | 43% |  | 
11 | CC(=O)Nc1cccc(-n2c(=O)n(C3CC3)c(=O)c3c(Nc4ccc(I)cc4F)n(C)c(=O)c(C)c32)c1 [trametinib] |  |  |  |  |  |  |  |  |  | -10% | %-inhibition CaMK4 [1, 24]: -5.45%; %-inhibition at 1 µmol/L, ROS [2, 25]: -0.611%; %-inhibition at 1 µmol/L, PKCθ [3, 19]: 0.388%; %-inhibition at 1 µmol/L, PKACγ [4, 20]: 2%; %-inhibition at 1 µmol/L, KDR [5, 27]: -0.549%; %-inhibition at 1 µmol/L, RSK3 [6, 21]: -5%; %-inhibition, MSK2 [7, 22]: -4.75%; %-inhibition AXL [9, 26]: -1.12%
12 | CCCS(=O)(=O)Nc1ccc(F)c(C(=O)c2c[nH]c3ncc(-c4ccc(Cl)cc4)cc23)c1F [vemurafenib] |  |  |  |  |  |  |  |  |  | 5% | %-inhibition CaMK4 [1, 24]: -2.38%; %-inhibition at 1 µmol/L, ROS [2, 25]: 2%; %-inhibition at 1 µmol/L, PKCθ [3, 19]: -3%; %-inhibition at 1 µmol/L, PKACγ [4, 20]: -3%; %-inhibition at 1 µmol/L, KDR [5, 27]: 13%; %-inhibition at 1 µmol/L, RSK3 [6, 21]: -0.497%; %-inhibition, MSK2 [7, 22]: -1%; %-inhibition AXL [9, 26]: 20%
